Source: patent US20180064681A1, “THERAPEUTIC COMBINATIONS OF CURCUMINOIDS AND FLAVONOIDS” (Primus Pharmaceuticals, Inc., priority 2015, published 2018)
pIC50: −log10 of the molar value.

Key:
[1] = system: IL-1β mRNA; test: IL-1β mRNA expression in LPS-stimulated human articular chondrocytes (real-time PCR); format: cell-based; settings: LPS 2 μg/ml, 4 hours
Method: (§1) Human articular chondrocytes were cultured in six well culture Petri dishes at a density of 2.5×10^5 cells/well, in a specific chondrocyte growth medium supplemented with 1% antibiotic—antimycotic mixture, at 37° C. in 5% CO2 humidified incubator. The medium was renewed every 2 days. […] Finally, the cells and medium underwent molecular evaluation 4 hours after the treatments.
(§2) Total RNA was isolated from human chondrocytes for reverse-PCR real time evaluation of IL-1beta, COX2, MMP1, MMP-3, MMP9, MMP13, NF-kB (p50), NF-kB (p65), IL-13 and 5-LOX mRNA (Real Time PCR system, mod 7500, Applied Biosystems, Carlsbad, Calif.) using Trizol Reagent Kit (Life Technologies, Monza, Italy). The first strand of cDNA was synthesized from 5.0 μg total RNA using a high capacity cDNA Archive kit (Applied Biosystems, Carlsbad, Calif.). β-actin mRNA was used as an endogenous control to allow the relative quantification. […] The amplified PCR products were quantified by measuring the calculated cycle thresholds (CT) of IL-1beta, COX2, MMP1, MMP-3, MMP9, MMP13, NF-kB (p50), NF-kB (p65), IL-13 and 5-LOX and β-Actin mRNA. The amounts of specific mRNA in samples were calculated using the 2^ΔΔCT method. The mean value of normal chondrocytes target levels became the calibrator and the results are expressed as the n-fold difference relative to normal controls (relative expression levels). […]

[2] = system: MMP-1 mRNA; test: MMP-1 mRNA expression in LPS-stimulated human articular chondrocytes (real-time PCR); format: cell-based; settings: LPS 2 μg/ml, 4 hours
Method: as §1, §2

[3] = system: IL-13 mRNA; test: IL-13 mRNA expression in LPS-stimulated human articular chondrocytes (real-time PCR); format: cell-based; settings: LPS 2 μg/ml, 4 hours; curcumin alone 5 or 10 μg/ml
Method: as §1, §2

[4] = system: NF-κB p65 mRNA; test: NF-κB (p65) mRNA expression in LPS-stimulated human articular chondrocytes (real-time PCR); format: cell-based; settings: LPS 2 μg/ml, 4 hours
Method: as §1, §2

[5] = system: MMP-3 mRNA; test: MMP-3 mRNA expression in LPS-stimulated human articular chondrocytes (real-time PCR); format: cell-based; settings: LPS 2 μg/ml, 4 hours
Method: as §1, §2

[6] = system: IL-1β mRNA; test: Median effect / combination index analysis (Chou and Talalay) of reduction of IL-1β mRNA levels in chondrocytes; format: cell-based; settings: Homo sapiens, Chondrocyte, read-out: IC50 (Dm) for reduction of IL-1β mRNA levels
Method: We then plotted the dose-response curve (FIG. 21) as log (fa/fu) with respect to log (D) to generate the Median Effect Plot (FIG. 22).
The CI was calculated as:

[7] = system: 5-LOX mRNA; test: 5-LOX mRNA expression in LPS-stimulated human articular chondrocytes (real-time PCR); format: cell-based; settings: LPS 2 μg/ml, 4 hours; curcumin 10 μg/ml
Method: as §1, §2

[8] = system: COX-2 mRNA; format: cell-based, human
Method: as §1, §2

pIC50 [6]: 4.85
SMILES: COc1cc(/C=C/C(=O)CC(=O)/C=C/c2ccc(O)c(OC)c2)ccc1O [curcumin]
IL-1β mRNA expression ([1]; curcumin 5 μg/ml): significantly blunted | IL-1β mRNA expression ([1]; curcumin 10 μg/ml alone): further decreased | MMP-1 mRNA expression ([2]; curcumin 5 μg/ml alone): significantly reduced | MMP-1 mRNA expression ([2]; curcumin 10 μg/ml): additional decrease in a concentration-dependent manner | IL-13 mRNA expression [3]: significantly increased in a dose dependent manner | NF-κB p65 mRNA expression ([4]; curcumin 5 μg/ml): failed to result in any change | NF-κB p65 mRNA expression ([4]; curcumin 10 μg/ml alone): more pronounced decrease | MMP-3 mRNA expression ([5]; curcumin 5 μg/ml alone): significantly reduced | MMP-3 mRNA expression ([5]; curcumin 10 μg/ml): additional decrease in a concentration-dependent manner | 5-LOX mRNA expression [7]: blunted | COX-2 mRNA expression [8]: significantly reduced
